# Test results reported in patent publication US20070123546A1, “2-amino-7,8-dihydro-6H-pyrido[4,3-d]pyrimidin-5-ones” (Chiron Corporation, priority 2005, published 2007).
# Molecular target: His-tagged N-terminal ATP binding domain (amino acid residues 9-236) of HSP90α (Homo sapiens, UniProt P07900)
# Test: HSP90 inhibitor binding potency: TRF competition binding assay
# Details: Table 4; competition with biotinylated radicicol
# Outline: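 Competition against biotinylated radicicol for binding to the His-tagged 9-236 ATP domain of HSP90α: 2 h, room temperature, HEPES/MgCl2/KCl/BSA buffer. Streptavidin capture, then europium-labeled anti-His antibody and enhancement solution; europium counts give IC50.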
row,SMILES,IC50
1,"COc1cccc(-c2scnc2[C@@H]2Cc3nc(N)nc(C)c3C(=O)N2)n1 [Compound 232, (S)-2-Amino-7-[5-(6-methoxy-pyridin-2-yl)-thiazol-4-yl]-4-methyl-7,8-dihydro-6H-pyrido[4,3-d]pyrimidin-5-one]",< 10 µM
2,"COc1cncc(-c2scnc2[C@@H]2Cc3nc(N)nc(C)c3C(=O)N2)n1 [Compound 233, (S)-2-Amino-7-[5-(6-methoxy-pyrazin-2-yl)-thiazol-4-yl]-4-methyl-7,8-dihydro-6H-pyrido[4,3-d]pyrimidin-5-one]",< 10 µM
3,"CCOc1nc(-c2ccccc2[C@H]2Cc3nc(N)ncc3C(=O)N2)cnc1N [Compound 234, (R)-2-Amino-7-[2-(5-amino-6-ethoxy-pyrazin-2-yl)-phenyl]-7,8-dihydro-6H-pyrido[4,3-d]pyrimidin-5-one]",< 10 µM
4,"CCc1nc(-c2ccccc2[C@H]2Cc3nc(N)nc(C)c3C(=O)N2)cnc1N [Compound 235, (R)-2-Ammo-7-[2-(5-amino-6-ethyl-pyrazin-2-yl)-phenyl]-4-methyl-7,8-dihydro-6H-pyrido[4,3-d]pyrimidin-5-one]",< 10 µM
5,"COc1ccc([C@H]2Cc3nc(N)nc(C)c3C(=O)N2)c(Br)c1 [Compound 236, (R)-2-Amino-7-(2-bromo-4-methoxy-phenyl)-4-methyl-7,8-dihydro-6H-pyrido[4,3-d]pyrimidin-5-one]",≥ 10 µM
6,"COc1ccc([C@H]2Cc3nc(N)nc(C)c3C(=O)N2)c(-c2cccc(OC)n2)c1 [Compound 237, (R)-2-Amino-7-[4-methoxy-2-(6-methoxy-pyridin-2-yl)-phenyl]-4-methyl-7,8-dihydro-6H-pyrido[4,3-d]pyrimidin-5-one]",< 10 µM
7,"CCOc1nc(-c2cc(OC)ccc2[C@H]2Cc3nc(N)nc(C)c3C(=O)N2)cnc1N [Compound 238, (R)-2-Amino-7-[2-(5-amino-6-ethoxy-pyrazin-2-yl)-4-methoxy-phenyl]-4-methyl-7,8-dihydro-6H-pyrido[4,3-d]pyrimidin-5-one]",< 10 µM
8,"CCOc1cncc(-c2cc(OC)ccc2[C@H]2Cc3nc(N)nc(C)c3C(=O)N2)n1 [Compound 239, (R)-2-Amino-7-[2-(6-ethoxy-pyrazin-2-yl)-4-methoxy-phenyl]-4-methyl-7,8-dihydro-6H-pyrido[4,3-d]pyrimidin-5-one]",< 10 µM
